Legend:
[1] = system: conscious rats; assay: Radiotelemetric measurement of blood pressure and heart rate of conscious rats; assay type: in vivo, rat
Excerpt: Radiotelemetric Measurement of Blood Pressure and Heart Rate of Conscious Rats
A commercially available telemetry system from Data Sciences International DSI, USA, was employed for the measurements on conscious rats (Wistar strain Unilever/WU or Spontaneous Hypertensive Rat/SHR) described below. The system consists of 3 main components: (1) implantable transmitters (PhysioTel® telemetry transmitter), (2) receivers (PhysioTel® receiver), which are linked via a multiplexer (DSI Data Exchange Matrix) to a (3) data acquisition computer. The telemetry system makes it possible to continuously record blood pressure, heart rate and body motion of conscious animals in their usual habitat.
The studies are conducted on adult female rats with a body weight of >200 g. After transmitter implantation, the experimental animals are housed singly in type III Makrolon® cages. They have free access to standard feed and water. The day/night rhythm in the test laboratory is set by changing the illumination of the room.
The telemetry transmitters used (e.g. PA-C40 HD-S10, DSI) are surgically implanted under aseptic conditions in the experimental animals at least 14 days before the first experimental use.
For the implantation, the fasted animals are anesthetized with isoflurane (IsoFlo®, Abbott, initiation 5%, maintenance 2%) and shaved and disinfected over a large area of their abdomens. After the abdominal cavity has been opened along the linea alba, the liquid-filled measuring catheter of the system is inserted into the descending aorta in the cranial direction above the bifurcation and fixed with tissue glue (Vetbond™, 3M). The transmitter housing is fixed intraperitoneally to the abdominal wall muscle, and the wound is closed layer by layer. Post-operatively, an antibiotic (Ursocyclin® 10%, 60 mg/kg s.c., 0.06 ml/100 g body weight, Serumwerk Bernburg AG, Germany) for infection prophylaxis and an analgesic (Rimadyl®, 4 mg/kg s.c., Pfizer, Germany) are administered.
Unless stated otherwise, the substances to be studied are administered orally to a group of animals in each case (n=6). In accordance with an administration volume of 2 ml/kg of body weight, the test substances are dissolved in suitable solvent mixtures. A solvent-treated group of animals is used as control.
The telemetry measuring system is configured for 24 animals.
Each of the instrumented rats living in the system is assigned a separate receiving antenna (RPC-1 Receiver, DSI). The implanted senders can be activated externally via an installed magnetic switch and are switched to transmission during the pre-run of the experiment. The signals emitted can be detected online by a data acquisition system (Dataquest™ A.R.T. for Windows, DSI or Ponemah, DSI) and processed accordingly.
In the standard procedure, the following are measured for 10-second periods in each case: (1) systolic blood pressure (SBP), (2) diastolic blood pressure (DBP), (3) mean arterial pressure (MAP), (4) heart rate (HR) and (5) activity (ACT). These parameters are measured over 24 hours after administration.
The acquisition of measurements is repeated under computer control at 5-minute intervals. The source data obtained as absolute values are corrected in the diagram with the currently measured barometric pressure (Ambient Pressure Reference Monitor, APR-1, DSI).
After the end of the experiment, the acquired individual data are sorted using the analysis software (Dataquest™ A.R.T. 4.1 Analysis or Ponemah, DSI). The 2 hour time point before substance administration is assumed as the blank value.
The data are smoothed over a presettable period by determination of the means (30 minute mean).

[2] = healthy subjects and hypertensive patients; cited from earlier work
[3] = patients with heart failure, phase III; cited from earlier work
[4] = compound of the formula (6) alone, oral 0.3 mg/kg
[5] = compound of the formula (29) alone, oral 3 mg/kg
[6] = compound of the formula (29) alone, oral 10 mg/kg

COC(=O)Nc1c(N)nc(-c2nn(Cc3ccccc3F)c3ncc(F)cc23)nc1N [formula (6), methyl {4,6-diamino-2-[5-fluoro-1-(2-fluorobenzyl)-1H-pyrazolo[3,4-b]pyridine-3-yl]pyrimidin-5-yl}carbamate]
decrease in the mean arterial blood pressure [1, 4]: ca. −10% | heart rate [1, 4]: transient increase in heart rate | hemodynamic effects (blood pressure, heart rate) ([1]; compound of the formula (6) alone, oral dose 0.1 mg/kg): no hemodynamic effects

trisodium [3-((1S,3R)-1-biphenyl-4-ylmethyl-3-ethoxycarbonyl-1-butylcarbamoyl)propionate-(S)-3′-methyl-2′-(pentanoyl{2″-(tetrazol-5-ylate)biphenyl-4′-ylmethyl}amino)butyrate] hemipentahydrate [LCZ696]
ANP and cGMP [2]: increase in ANP and cGMP | renin and angiotensin [2]: compensatory increase in renin and angiotensin | risk of death and hospitalization [3]: reduction in the risk of death and hospitalization

C[C@H]([C@H](C(=O)Nc1cc(C(CC(=O)O)C2CC2)ccc1Cl)c1ccc(Cl)cc1)C(F)(F)F (stereo partly drawn) [formula (29), 3-(4-chloro-3-{[(2S,3R)-2-(4-chlorophenyl)-4,4,4-trifluoro-3-methylbutanoyl]amino}phenyl)-3-cyclopropylpropanoic acid]
heart rate ([1]; compound of the formula (29) alone, oral 1 mg/kg): reflex tachycardia | decrease in the mean arterial blood pressure [1, 5]: ca. −10% | heart rate [1, 5]: associated reflex tachycardia | decrease in the mean arterial blood pressure [1, 6]: ~15% | heart rate [1, 6]: associated reflex tachycardia

Source: patent publication US12427131B2, “Stimulators and/or activators of soluble guanylate cyclase (sGC) in combination with an inhibitor of neutral endopeptidase (NEP inhibitor) and/or an angiotensin AII antagonist and the use thereof” (BAYER PHARMA AKTIENGESELLSCHAFT, priority 2015, dated 2025)
